Assay results from patent publication US9594073B2, “Test solvent for evaluating the compatibility of biologically active substances and graft copolymers” (ABBVIE DEUTSCHLAND GMBH & CO KG, priority 2010, dated 2017).

Experiment: Homogeneity of melt extrudates with Soluplus (optical microscope)
Assay type: physicochemical
Method: Samples were prepared by melt extrusions of mixtures consisting of fenofibrate or ibuprofen and Soluplus®. […] Aliquots of 50 g of the powdery mixtures were extruded on a laboratory extruder (Rondol l (10 mm) Rondol Technology Ltd. Staffordshire GB) using a conveying screw equipped with two kneading elements at about 120° C. and 100 rpm. The powdery mixtures were continuously metered in via a vibratory feeder. The extrudate exiting the extruder was passed through a calendar with two smooth rollers arranged at a gap distance of 0.4 mm. Calendered sheets having a thickness of about 1 mm were thus obtained. Pieces of 2 mm×2 mm were cut out from the sheets and homogeneity of the pieces was examined using an optical microscope (Leica DMLM).

Amount of crystals in extrudate (ibuprofen concentration 40 wt %): no crystals | Amount of crystals in extrudate (ibuprofen concentration 45 wt %): no crystals | Amount of crystals in extrudate (ibuprofen concentration 50 wt %): low | Amount of crystals in extrudate (ibuprofen concentration 55 wt %): moderate | Amount of crystals in extrudate (ibuprofen concentration 60 wt %): high
SMILES: CC(C)Cc1ccc(C(C)C(=O)O)cc1 (centres unmarked) [ibuprofen]
